In ChEMBL document CHEMBL5214972, “Design and evaluation of novel analogs of 2-amino-4-boronobutanoic acid (ABBA) as inhibitors of human gamma-glutamyl transpeptidase” (Bioorg Med Chem, 2022):

Legend:
[1] = target: T1, Glutathione hydrolase 1 proenzyme (Homo sapiens, UniProt P19440); test: Inhibition of human GGT1 transpeptidation in Pichia pastoris using L-GpNA as substrate in presence of Gly-Gly
[2] = target: T1, Glutathione hydrolase 1 proenzyme; test: Inhibition of human GGT1 expressed in Pichia pastoris assessed as inhibition of GSH hydrolysis measured by L-glutamate release assay
[3] = Inhibition of bovine GGT1 transpeptidation using gamma-glutamyl-p-nitroanilide in presence of Gly-Gly; design: species or system Bos taurus

T1 sequence (P19440 1-380 limits assumed): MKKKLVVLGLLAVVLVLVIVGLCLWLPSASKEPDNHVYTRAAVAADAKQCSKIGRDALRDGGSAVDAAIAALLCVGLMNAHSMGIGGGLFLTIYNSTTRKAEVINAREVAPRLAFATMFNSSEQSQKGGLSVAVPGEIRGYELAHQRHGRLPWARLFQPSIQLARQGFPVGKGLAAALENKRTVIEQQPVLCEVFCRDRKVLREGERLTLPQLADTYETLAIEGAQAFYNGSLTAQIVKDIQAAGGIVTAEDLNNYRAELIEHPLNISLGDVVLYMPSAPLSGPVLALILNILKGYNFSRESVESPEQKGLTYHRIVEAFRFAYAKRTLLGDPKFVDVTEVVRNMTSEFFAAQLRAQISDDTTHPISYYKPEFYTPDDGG
T1 sequence (P19440 381-569 limits assumed): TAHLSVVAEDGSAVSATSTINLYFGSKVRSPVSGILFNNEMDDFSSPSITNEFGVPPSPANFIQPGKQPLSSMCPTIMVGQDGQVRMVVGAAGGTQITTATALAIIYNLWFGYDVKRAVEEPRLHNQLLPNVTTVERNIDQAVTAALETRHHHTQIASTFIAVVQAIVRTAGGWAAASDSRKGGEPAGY

SMILES | Ki [1] | Ki [2] | Ki [3]
COc1ccc(CN[C@H](CCB(O)O)C(=O)O)cc1 | 343 µM |  | 
N[C@H](CN[C@H](CCB(O)O)C(=O)O)Cc1ccccc1 | 61 µM |  | 
NCCN[C@H](CCB(O)O)C(=O)O | 46 µM | 260 µM | 
C[C@@H](N)CN[C@H](CCB(O)O)C(=O)O | 254 µM | > 1000 µM | 
O=C(O)[C@@H](CCB(O)O)NCCc1ccccc1 | 220 µM | 356 µM | 
N[C@H](CCB(O)O)C(=O)O | 0.045 µM | 0.077 µM | 
O=C(O)[C@@H](CCB(O)O)NCc1ccccc1 | 202 µM | 2150 µM | 
O=C(O)[C@@H](CCB(O)O)NCCCc1ccccc1 | 49 µM | 108 µM | 
O=C(O)[C@@H](CCB(O)O)NCc1ccc(S(=O)(=O)Nc2ccccc2)cc1 | 173 µM |  | 
O=C(O)[C@@H](CCB(O)O)NCc1c[nH]cn1 | 26 µM | 87 µM | 
N[C@@H](CN[C@H](CCB(O)O)C(=O)O)Cc1ccccc1 | 88 µM | 508 µM | 
O=C(O)c1cccc(CN[C@H](CCB(O)O)C(=O)O)c1 | 589 µM |  | 
N[C@@H](CCB(O)O)C(=O)O | 0.0054 µM | 0.025 µM | 0.017 µM
